According to PubChem BioAssay (NCI):
Values joined by “and” are separate entries in the source; they are usually repeats but may differ in a detail not shown here. Identical values can stand only once.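 Values below derive from 48-hour exposures of cells grown in 96-well plates, with endpoints linearly interpolated between the two concentrations bracketing the appropriate inhibition level. GI50 is the concentration that inhibits growth by half. TGI marks complete inhibition of growth.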

Assays:
Assay in all cases: growth of human tumour cells (NCI), 48 h
UO-31 renal = tested on: UO-31 renal
MDA-MB-231 breast = tested on: MDA-MB-231 breast
UACC-257 melanoma = tested on: UACC-257 melanoma
A498 renal = tested on: A498 renal
NCI/ADR-RES ovarian = tested on: NCI/ADR-RES ovarian
HOP-62 NSCLC = tested on: HOP-62 NSCLC
SW-620 colon = tested on: SW-620 colon
SN12C renal = tested on: SN12C renal
SF-295 CNS = tested on: SF-295 CNS
MALME-3M melanoma = tested on: MALME-3M melanoma

SMILES | GI50 (UO-31 renal) [µM] | TGI (UO-31 renal) [µM] | GI50 (MDA-MB-231 breast) [µM] | TGI (MDA-MB-231 breast) [µM] | GI50 (UACC-257 melanoma) [µM] | TGI (UACC-257 melanoma) [µM] | GI50 (A498 renal) [µM] | TGI (A498 renal) [µM] | GI50 (NCI/ADR-RES ovarian) [µM] | TGI (NCI/ADR-RES ovarian) [µM] | GI50 (HOP-62 NSCLC) [µM] | TGI (HOP-62 NSCLC) [µM] | GI50 (SW-620 colon) [µM] | TGI (SW-620 colon) | GI50 (SN12C renal) [µM] | TGI (SN12C renal) [µM] | GI50 (SF-295 CNS) [µM] | TGI (SF-295 CNS) [µM] | TGI (MALME-3M melanoma) [µM] | GI50 (MALME-3M melanoma) [µM]
COc1ccc([C@H]2[C@@H](F)C(=O)N2c2cc(OC)c(OC)c(OC)c2)cc1F | 0.171 | > 100 | 0.355 | > 100 | > 100 | > 100 | 0.847 | 8.08 | 0.0424 | > 100 | 0.511 | > 100 | 0.0562 | > 100 µM | 0.482 | > 100 | 0.0535 | > 100 |  | 
CCOC(=O)NC(=O)c1cn(CCCO)c(=O)[nH]c1=O |  | > 100 |  |  |  | > 100 |  | > 100 |  |  |  | > 100 |  | > 100 µM |  | > 100 |  | > 100 | > 100 | 
ClCc1cccc(Cn2cnc3ncnc(Cl)c32)c1 | 1.54 | 3.11 | 1.72 | 3.4 | 1.96 | 5.52 | 18.4 | 35.9 | 2.78 | 9.75 | 2.17 | 3.99 | 15.2 | 32.2 µM | 7.02 | 20.2 | 6.35 | 19 |  | 
[Cl-].[La+3].[O-]/N=C(\c1ccccc1)c1ccccn1.[O-]/N=C(\c1ccccc1)c1ccccn1.[O-]/N=C(\c1ccccc1)c1ccccn1 | 30.2 | > 80.8 |  |  | 41.1 | > 100 | 77.6 | > 100 |  |  | 28.4 | > 93.9 | 53.9 | > 100 µM | 23.5 | > 100 | 27.7 | > 100 | > 100 | 45.8
O=C(/C=C\c1ccc(Cl)c(Cl)c1)c1ccc(Cl)cc1Cl | > 100 | > 100 |  |  |  | 36.5 | > 100 | > 100 |  |  | > 100 | > 100 |  | 8.47 µM and 18.9 µM |  | > 100 |  | 47.1 | 35.5 | 
COc1cc2c3c(n(C)c(=O)c2cc1OC)-c1cc2c(cc1/C3=C\CCCN)OCO2 | 3.18 | 20.3 | 5.09 | 31.5 | 30.5 | > 100 | 2.49 | 18.2 | 14.5 | 74.4 | 3.64 | 26.6 | 2.33 | 32.9 µM |  |  | 1.83 | 8.15 | 38.6 | 10.1
CC[C@H](Nc1ncnc2nc[nH]c12)c1oc2ccccc2c(=O)c1-c1cccc(F)c1 | 5.93 | 58 | 16.6 | 50.3 | 25.7 | > 100 |  |  | 21.3 | > 100 | 33.8 | > 100 | 32.5 | > 100 µM | 19.7 | > 100 | 18.4 | > 100 | > 100 | 25.1
